# PMC9179882 (Cancers, 2022)
# Columns and labels:
# SW480 cells [1] = assay: Cell cycle analysis by propidium iodide flow cytometry; format: cell-based, human; conditions: SW480, GA IC50 for 24 h
# Method: Cell cycle analyses were carried out by flow cytometry with propidium iodide (PI) (P4864, Merck, Darmstadt, Germany). Cells (10^6) were seeded into 10 cm culture dishes and treated with GA IC50 for 24 h or with the vehicle DMSO as control. Cells were then fixed with ice-cold 70% ethanol on ice and stained with 0.04 mg/mL PI and 0.1 mg/mL ribonuclease A (19101, Qiagen, Hilden, Germany). Cell cycle distribution was determined by an analytical DNA flow cytometer (FACSVerse, BD Biosciences) with instrument settings on low mode and FlowJo software v10.
# GA is widely present in the plant kingdom and largely found in different food sources. According to its cytotoxic activity (shown above), cell cycle analysis was performed on SW480 cells by FACS with propidium iodide staining (Figure 1C). After GA IC50 treatment for 24 h, the frequency of cells at different stages of the cell cycle changed with respect to non-treated cells (45.34% of cells at G1, 34.16% at S, 7.65% at G2/M). […] To explore this hypothesis, we determined the intracellular localization of nucleolar proteins by immunofluorescence of SW480 cells treated with GA IC50 for 6 h because we had previously observed that some DNA-binding compounds affect nucleolar organization. In particular, we analyzed three proteins that are indicative of nucleolus status, such as nucleolin (NCL), fibrillarin (FBL), and Pol I catalytic subunit A (POLR1A) (Figure 1D).
# SW480 cells [2] = assay: Resazurin cytotoxic assay, tumoral SW480; format: cell-based, human; conditions: SW480 primary tumor cells, mean ± SD
# Method: CRL1790, SW480 and SW620 cell lines were purchased from American Type Culture Collection (ATCC). Cells were cultured at 37 °C with 5% CO2 atmosphere in medium supplemented with 10% fetal bovine serum (10270106, Gibco, Waltham, MA, USA), 10 mg/mL penicillin, 10 mg/mL streptomycin, […] amphotericin, and 0.03% L-Glutamine as recommended by the ATCC. MEM medium (M5650, Merck, Darmstadt, Germany) was used for non-tumoral CRL1790, and RPMI 1640 medium (L0501-500, Biowest, Nuaillé, France) was used for both tumoral SW480 and SW620 cell lines.
# Cytotoxic activity was screened using Resazurin Fluorimetric Assay (R7017, Merck, Darmstadt, Germany), according to the manufacturer’s protocol. Cells seeded into 96-well plates (8 × 10^3 cells/well) were treated for 48 h with phenolic compounds at increasing concentrations from 2 × 10^−5 µM to 100 µM. Negative control with vehicle DMSO was included. Fluorescence was determined using Nanoquant Infinite M200 Pro multi-plate reader (Tecan). Half-maximal inhibitory concentration (IC50) values were determined in triplicate by non-linear regression with Graphpad (Prism).
# Natural products such as phenolic compounds have recently attracted significant attention for their anticancer properties. […] We used three different cell lines to mimic CRC progression. In particular, CRL1790 are colon epithelial cells simulating the non-tumoral stage. In addition, SW480 is Dukes’ type B colorectal adenocarcinoma cells representing the primary tumor. Finally, SW620 constitutes Dukes’ type C colorectal adenocarcinoma derived from metastasic site cells to mimic the most aggressive metastasic stage. […] Cytotoxic potency upon 48 h treatment with phenolic compounds was examined by determination of half-maximal inhibitory concentration (IC50) values using the Resazurin method (Table 1). Only GA inhibited cell growth in SW480 and SW620 at clinically-relevant concentrations (IC50 values lower than 30 µM).
# [3] = tested on: CMYC (FID oligonucleotide) (DNA, G4) GGGGCGCTTATGGGGAGGGTGGGGAGGGTGGGGAAGGTGGGGAGGAG; assay: fluorescent intercalator displacement (TOPRO3); conditions: oligonucleotide prefolded in 100 mM KCl, 10 mM potassium phosphate; TOPRO3 displaced; 10 µM GA, single concentration; prefolding buffer pH 7.0
# 5′ETS G4 [4] = assay: UV-vis titration, 5′ETS G4; format: binding; conditions: UV-vis titration at 265 nm, 5′ETS G4, 25 °C, pH 7.0; read-out: dissociation constant (Kd)
# Method: (§1) G4-oligonucleotides listed in Supplementary Table S3 were purchased from Integrated DNA Technologies (Clareville, IA, USA). All of them were dissolved in G4s buffer (10 mM potassium phosphate, 100 mM potassium chloride at pH 7.0), heated at 95 °C for 10 min, slowly cooled to RT, and stored at 4 °C.
# (§2) UV-vis absorption spectra were registered in a Varian Cary 50 UV-vis spectrophotometer at 25 °C. Concentration of the prefolded G4 DNA was 5 μM in G4s buffer (10 mM potassium phosphate buffer containing 100 mM potassium chloride at pH 7.0). Once the DNA was placed in the cuvette, a concentrated solution of GA (1 mM) was routinely added, 1 μL each time, with a Hamilton syringe and subsequently mixed with a pipette. After each addition of the GA solution, a UV-vis spectrum was recorded. In total, 10 μL of GA solution were added, with a final ratio of 1:20 G4 DNA:GA. For the blank, the same experiment with the successive additions was repeated, beginning just with buffer in the cuvette. […] Dissociation constants (Kd) were evaluated at 265 nm using the following equation:(1) A=Am+(Aml-Am)×(M+L+Kd)−(M+L+Kd)^2−4×M×L/2×M where A is the absorbance signal, Am is the signal of DNA in absence of the ligand, Aml is the signal of DNA in presence of the ligand, M is the total concentration of DNA, L is the total concentration of ligand, and Kd is the dissociation constant.
# [5] = tested on: CMYC (CD and UV-vis oligonucleotide) (DNA, G4) TGGGGAGGGTGGGGAGGGTGGGGAAGG; assay: UV-vis titration at 265 nm; conditions: 100 mM KCl, 10 mM potassium phosphate; pH 7.0, 25 °C; 5 µM DNA; GA to 1:20 DNA:GA
# [6] = tested on: 5′ETS (DNA, G4) GGGGGGCGGGTGGTTGGG; assay: fluorescent intercalator displacement (TOPRO3); conditions: oligonucleotide prefolded in 100 mM KCl, 10 mM potassium phosphate; TOPRO3 displaced; 10 µM GA, single concentration; prefolding buffer pH 7.0
# 5′ETS G4 [7] = assay: PCR-stop assay, 5′ETS G4; format: biochemical; conditions: 5′ETS G4 sequence, GA 0-100 µM
# CMYC G4 = assay: UV-vis titration, CMYC G4; format: binding; conditions: UV-vis titration at 265 nm, CMYC G4, 25 °C, pH 7.0; read-out: dissociation constant (Kd)
# Method: as §1, §2
smiles,measurement,setting,value
"O=C(O)c1cc(O)c(O)c(O)c1 [Gallic acid, 3,4,5-trihydroxybenzoic acid]",% of cells at G2/M,SW480 cells [1]; non-treated 7.65%,14.46%
same,% of cells at S,SW480 cells [1]; non-treated 34.16%,43.82%
same,% of cells at G1,SW480 cells [1]; non-treated 45.34%,28.30%
same,IC50,"SW480 cells [2]; Homo sapiens, SW480, 48 h",< 30 µM
same,IC50,SW480 cells [2]; 48 h,22.4 ± 2.12 µM
same,%Fluorescence,[3],84.3%
same,Kd,5′ETS G4 [4],148 µM
same,Kd,[5],113 µM
same,%Fluorescence,[6],84.2%
same,concentration inhibiting accumulation of amplified products,5′ETS G4 [7],100 µM
same,Kd,CMYC G4,113 µM
